Patent publication US20210368788A1, “METHODS FOR USING ANTIMICROBIAL COMPOSITIONS” (Next Science IP Holdings Pty Ltd, priority 2016, published 2021)

Experiment: Testing of lysozyme amount for efficacy (method not described)
Conditions: 0.08 g lysozyme per kg of composition

With lysozyme the “lowest amount exhibiting some efficacy” value was 80 ppm.
